Measured values as given in US20230255966A1, “A COMBINATION OF A CBP/P300 BROMODOMAIN INHIBITOR AND AN EGFR INHIBITOR FOR USE IN TREATING EGFR-MUTANT NSCLC” (TOLREMO THERAPEUTICS AG, priority 2020, published 2023).
Where two headings read alike, the source gives them in different places.

Columns and labels:
HCC827 cells [1] = experiment: Cell counting by nuclear fluorescent staining (Hoechst33342); type: cell-based; conditions: for Effect on cell proliferation as single agent: absence of EGFR inhibitor (FIG. 3 left); for Anti-proliferative activity / re-growth in presence of Gefitinib: in presence of 300 nM Gefitinib (FIG. 3)
Experimental: Several plates were seeded, as for each time point of cell counting one plate was fixed and stained for analysis. […] Cell cultivation was continued until time of fixation and analysis for each plate. For extended time-points, medium and drugs were replenished twice weekly.
At the given time plates were washed 3 times with PBS and cells fixed with 80 μl 4% PFA for 10 min, RT. After 3 wash steps with PBS cells were stained with 10 μg/ml Hoechst33342 (Thermo Scientific H12492) in 100 μl PBS for 2 h, RT, dark. After 3× PBS washing-steps, Hoechst33342 signals were acquired on in an automated imaging mode using a Zeiss Apotome with motorized X/Y stage and a 5× objective. Image analysis and determination of Hoechst33342 spots (nuclei) was done using ImageJ. Number of nuclei was plotted as function of time using GraphPad Prism.

HCC4006 cells = experiment: Label-free determination of cell proliferation (CELIGO); conditions: for Development of drug resistance / re-growth: HCC4006, combined with 100 nM osimertinib; for Development of drug resistance / re-growth / Effect on cell proliferation on their own: 21 days (FIG. 10); for Effect on cell proliferation on their own: HCC4006, single agent (1 μM Compound A, 0.2 μM Compound C, 0.2 μM CCS1477, 1 μM FT-6876, 0.2 μM GNE-781)
HCC827 cells [2] = experiment: as above; type: cell-based; conditions: for Development of drug resistance / re-growth: HCC827, combined with 100 nM osimertinib; for Development of drug resistance / re-growth / Effect on cell proliferation on their own: 21 days (FIG. 9); for Effect on cell proliferation on their own: HCC827, single agent (1 μM Compound A, 0.2 μM Compound C, 0.2 μM CCS1477, 1 μM FT-6876, 0.2 μM GNE-781)
NCI-H1975 cells [3] = experiment: as above; type: cell-based
NCI-H1975 cells [4] = experiment: Gene expression analysis (qPCR of ALPP and HOPX); type: cell-based; conditions: 24 h; for EGFR inhibitor induced gene expression (ALPP, HOPX): NCI-H1975, 1 μM CBP/p300 inhibitor in presence of 20 nM osimertinib
Experimental: (§1) Equal amount of cDNA was then subjected to qPCR analysis using the Kapa SYBR fast kit (KK4611) in a 384 well format in a Roche Light Cycler 480. Gene expression of genes was evaluated by subtraction of housekeeping gene CT-values (b-Actin) from CT of the genes of interest, and by calculating the ΔΔCT by subtracting the DMSO control value from sample of interest to finally calculate fold change differences of treated versus control treated sample.
(§2) Data is from 2 independent experiments with qPCRs in duplicate (mean±SEM) (FIG. 1C-D).

NCI-H1975 xenografts = experiment: NCI-H1975 xenograft tumor growth; type: in vivo, NMRI-Nude mice; conditions: 2 mg/kg osimertinib alone
Experimental: Tumor volume was measured using a manual caliper two to three times a week. The tumor volume was calculated using the formula: lager tumor diameter x square of the smaller tumor diameter divided by 2. Based on a linear fit of the mean tumor volumes the slopes of the curves were compared by regression analysis (two-tailed).
(§3) The response was determined by comparing tumor volume change at time t to its baseline: % tumor volume change=ΔVolt=100%×((Vt−Vinitial)/Vinitial). The Best Response was the minimum value of ΔVolt for t≥10 d. For each time t, the average of ΔVolt from t=0 to t was also calculated. The BestAvgResponse is defined as the minimum value of this average for t≥10 d. This metric captures a combination of speed, strength and durability of response into a single value. […] Mice that were sacrificed because of an adverse event before they had completed 14 d on trial were removed from the data set.
as §3, with “ΔVolt for t≥6 d. For” for “ΔVolt for t≥10 d. For”

HCC827 cells [5] = experiment: Gene expression analysis (qPCR of ALPP and HOPX); type: cell-based; conditions: HCC827, 1 μM CBP/p300 inhibitor in presence of Gefitinib, 24 h
Experimental: as §1, §2

[6] = NCI-H1975, 50 nM osimertinib alone (FIG. 5)

COc1ccc(CCc2nc3cc(-c4c(C)noc4C)ccc3n2C[C@H](C)N2CCOCC2)cc1Cl [SGC-CBP30]
Effect on cell proliferation as single agent (HCC827 cells [1]): do not affect cell proliferation | Anti-proliferative activity / re-growth in presence of Gefitinib (HCC827 cells [1]): potentiate the effect of the EGFR inhibitor

CNC(=O)N1CCc2c(c(N3CCCc4cc(-c5cnn(C)c5)c(C(F)F)cc43)nn2C2CCOCC2)C1 [GNE-781]
Development of drug resistance / re-growth (HCC4006 cells): prevent the development of drug resistance | Effect on cell proliferation on their own (HCC4006 cells): do not affect cell proliferation | Development of drug resistance / re-growth (HCC827 cells [2]): prevent the development of drug resistance | Effect on cell proliferation on their own (HCC827 cells [2]): do not affect cell proliferation

C=CC(=O)Nc1cc(Nc2nccc(-c3cn(C)c4ccccc34)n2)c(OC)cc1N(C)CCN(C)C [osimertinib]
Cell proliferation, initial (NCI-H1975 cells [3]; [6]): initially blocks cell proliferation | Growth long-term (NCI-H1975 cells [3]; [6]): cells continue growing with a slow rate | Cell proliferation, initial (HCC4006 cells; HCC4006, 100 nM osimertinib alone (FIG. 10)): initially blocks cell proliferation | Re-growth in long-term cultures (HCC4006 cells; HCC4006, 100 nM osimertinib only (FIG. 10)): HCC4006 cells re-grow if treated with osimertinib only | Cell proliferation, initial (HCC827 cells [2]): initially blocks cell proliferation | Re-growth in long-term cultures (HCC827 cells [2]): HCC827 cells re-grow if treated with osimertinib only | ALPP and HOPX gene expression (NCI-H1975 cells [4]; NCI-H1975, EGFR inhibitor (20 nM osimertinib) alone): upregulation of example genes ALPP and HOPX | Slope of linear regression fit of mean tumor volumes over time (NCI-H1975 xenografts): +6.4

COc1cncc(-c2cc(Nc3cccc(F)c3)nc([C@@H]3CC[C@H](C)N(C(C)=O)C3)n2)c1 [Compound A]
Growth long-term (NCI-H1975 cells [3]; NCI-H1975, 50 nM osimertinib with 2.0, 0.5 or 0.125 μM co-treatment (FIG. 5)): delayed | Effect on cell numbers on their own (NCI-H1975 cells [3]; NCI-H1975, 2 μM single agent (FIG. 5)): no/weak effect on cell numbers | Re-growth in long-term cultures (HCC827 cells [2]; HCC827, 300 nM Gefitinib + 1 μM Compound A, >22 days (FIG. 4)): significantly delays or completely prevents re-grow | Effect on cell numbers on its own (HCC827 cells [2]; HCC827, 1 μM Compound A alone (FIG. 4)): weak/no effect on cell numbers | Development of drug resistance / re-growth (HCC827 cells [2]): prevent the development of drug resistance | EGFR inhibitor induced gene expression (ALPP, HOPX) (HCC827 cells [5]): reverse EGFR inhibitor induced gene expression | EGFR inhibitor induced gene expression (ALPP, HOPX) (NCI-H1975 cells [4]): reverse EGFR inhibitor induced gene expression | Re-growth under continuous Gefitinib exposure (HCC827 cells [1]; in combination with 20 nM Gefitinib (FIG. 2A)): Re-growth is inhibited | Anti-proliferative activity / re-growth in presence of Gefitinib (HCC827 cells [1]): potentiate the effect of the EGFR inhibitor

CC(=O)N1C[C@H](c2nc(Nc3ccc4[nH]ncc4c3)cc(-c3cccnc3)n2)CC[C@@H]1C [Compound 00030]
Effect on cell proliferation as single agent (HCC827 cells [1]): absence of an anti-proliferative effect | Anti-proliferative activity / re-growth in presence of Gefitinib (HCC827 cells [1]): potentiate the effect of the EGFR inhibitor

COC(=O)N1c2ccc3c(nc(Cc4ccccc4)n3[C@H]3CCC[C@H](C(=O)O)C3)c2CC[C@@H]1C [FT-6876]
Development of drug resistance / re-growth (HCC4006 cells): prevent the development of drug resistance | Effect on cell proliferation on their own (HCC4006 cells): do not affect cell proliferation | Development of drug resistance / re-growth (HCC827 cells [2]): prevent the development of drug resistance | Effect on cell proliferation on their own (HCC827 cells [2]): do not affect cell proliferation

CNC(=O)Nc1ccc2c(c1)CC[C@@]21OC(=O)N(CC(=O)N(Cc2ccc(F)cc2)[C@@H](C)C(F)(F)F)C1=O [Compound A-485]
EGFR inhibitor induced gene expression (ALPP, HOPX) (HCC827 cells [5]): reverse EGFR inhibitor induced gene expression | EGFR inhibitor induced gene expression (ALPP, HOPX) (NCI-H1975 cells [4]): reverse EGFR inhibitor induced gene expression | Effect on cell proliferation as single agent (HCC827 cells [1]): affect cell proliferation

O=C1[C@H](Cc2ccc(O)cc2)N2C(=O)CCN(C(=O)NCc3ccccc3)[C@H]2CN1Cc1cccc2ccccc12 [ICG-001]
EGFR inhibitor induced gene expression (ALPP, HOPX) (HCC827 cells [5]): does not blunt EGFR-induced gene expression | EGFR inhibitor induced gene expression (ALPP, HOPX) (NCI-H1975 cells [4]): does not blunt EGFR-induced gene expression

COc1cc2ncnc(Nc3ccc(F)c(Cl)c3)c2cc1OCCCN1CCOCC1 [Gefitinib]
Cell proliferation, initial (HCC4006 cells; HCC4006, 300 nM Gefitinib alone (FIG. 8)): initially completely blocks cell proliferation | Re-growth in long-term cultures (HCC4006 cells; HCC4006, 300 nM Gefitinib only (FIG. 8)): HCC4006 cells re-grow if treated with Gefitinib only
